In brackets after ≈: the same amount, converted by molar mass. Where two headings read alike, the source gives them in different places.
Key:
[1] = system: Haemophilus influenzae Wy21; assay: MIC against human bacteria in vitro; type: cell-based
Sarcina lutea 8340 = assay: MIC against human bacteria in vitro; type: cell-based; details: Micrococcus luteus, 8340, 18 h
Past. multocida PA2 = assay: MIC against veterinary bacteria in vitro; details: Pasteurella multocida, PA2, 18 h
Description: (§1) The activity of the compounds of the Examples against various veterinarily important bacteria, was assayed in vitro using two-fold serial dilutions in Diagnostic Sensitivity Test Agar inoculated with 10^4 organisms.

M. suipneumoniae JF 435 = assay: MIC against mycoplasma in vitro; type: cell-based; details: Mesomycoplasma hyopneumoniae, JF435, 144 h; M. suipneumoniae JF 435; 6 days, 37° C.; read-out: MIC
[2] = system: M. suipneumoniae J2206/183^b; assay: MIC against mycoplasma in vitro; type: cell-based; details: Mesomycoplasma hyopneumoniae, 144 h; M. suipneumoniae J2206/183^b; 6 days, 37° C.; read-out: MIC
M. suipneumoniae HK(2) = assay: MIC against mycoplasma in vitro; type: cell-based; details: Mesomycoplasma hyopneumoniae, 144 h; M. suipneumoniae HK(2); 6 days, 37° C.; read-out: MIC
[3] = system: Corynebacterium xerosis 9755; assay: MIC against human bacteria in vitro; type: cell-based; details: Corynebacterium xerosis, 9755, 18 h
Staph. aureus Russell = assay: MIC against human bacteria in vitro; type: cell-based; details: Staphylococcus aureus
[4] = system: Pasteurella multocida 1633; assay: MIC against human bacteria in vitro; type: cell-based; details: Pasteurella multocida, 1633, 18 h
Strep. agalactiae SPA1 = assay: MIC against veterinary bacteria in vitro; details: Streptococcus agalactiae, SPA1, 18 h
Description: as §1

E. coli ESS = assay: MIC against human bacteria in vitro; type: cell-based; details: Escherichia coli
Past. haemolytica PA5 = assay: MIC against veterinary bacteria in vitro; details: Mannheimia haemolytica, PA5, 18 h
Description: as §1

[5] = system: Strep. suis (group D) SPS11; assay: MIC against veterinary bacteria in vitro; details: Streptococcus suis, 18 h
Description: as §1

Staph. aureus Oxford [6] = assay: MIC against human bacteria in vitro; type: cell-based; details: Staphylococcus aureus; Staph. aureus Oxford; 5% chocolated horse blood agar, 18 hours; read-out: MIC
[7] = system: Erysipelothrix rhusiopathiae NCTC 8163; assay: MIC against veterinary bacteria in vitro; details: Erysipelothrix rhusiopathiae, NCTC8163, 18 h
Description: as §1

Strep. pneumoniae CN33 = assay: MIC against human bacteria in vitro; type: cell-based; details: Streptococcus pneumoniae
M. suipneumoniae UCD 1 = assay: MIC against mycoplasma in vitro; type: cell-based; details: Mesomycoplasma hyopneumoniae, UCD1, 144 h; M. suipneumoniae UCD 1; 6 days, 37° C.; read-out: MIC
M. hyorhinis ATCC 23234 = assay: MIC against mycoplasma in vitro; type: cell-based; details: Mesomycoplasma hyorhinis, ATCC23234, 144 h; M. hyorhinis ATCC 23234; 6 days, 37° C.; read-out: MIC
S. dublin S7 = assay: MIC against veterinary bacteria in vitro; details: Salmonella enterica, S7, 18 h
Description: as §1

Bacillus subtilis 6633 = assay: MIC against human bacteria in vitro; type: cell-based
Staph. aureus Oxford [8] = assay: MIC against veterinary bacteria in vitro; details: Staphylococcus aureus, 18 h
Description: as §1

M. hyorhinis ATCC 25021 = assay: MIC against mycoplasma in vitro; type: cell-based; details: Mesomycoplasma hyorhinis, ATCC25021, 144 h; M. hyorhinis ATCC 25021; 6 days, 37° C.; read-out: MIC
[9] = system: Staph. aureus B4 (pen. resistant); assay: MIC against veterinary bacteria in vitro; details: Staphylococcus aureus, 18 h
Description: as §1

Bord. bronchiseptica B08 = assay: MIC against veterinary bacteria in vitro; details: Bordetella bronchiseptica, B08, 18 h
Description: as §1

[10] = system: M. suipneumoniae PW/C/210; assay: MIC against mycoplasma in vitro; type: cell-based; details: Mesomycoplasma hyopneumoniae, 144 h; M. suipneumoniae PW/C/210; 6 days, 37° C.; read-out: MIC
[11] = system: M. suipneumoniae ATCC 25095; assay: MIC against mycoplasma in vitro; type: cell-based; details: Mesomycoplasma hyopneumoniae, ATCC25095, 144 h; M. suipneumoniae ATCC 25095; 6 days, 37° C.; read-out: MIC
[12] = system: M. hyosynoviae ATCC 25591; assay: MIC against mycoplasma in vitro; type: cell-based; details: 144 h; M. hyosynoviae ATCC 25591; 6 days, 37° C.; read-out: MIC
Strep. agalactiae 2788-B = assay: MIC against human bacteria in vitro; type: cell-based; details: Streptococcus agalactiae
M. dispar NCTC 10125 = assay: MIC against mycoplasma in vitro; type: cell-based; details: 144 h; M. dispar NCTC 10125; 6 days, 37° C.; read-out: MIC
Past. multocida PA1 = assay: MIC against veterinary bacteria in vitro; details: Pasteurella multocida, PA1, 18 h
Description: as §1

[13] = system: M. suipneumoniae NCTC 10110; assay: MIC against mycoplasma in vitro; type: cell-based; details: Mesomycoplasma hyopneumoniae, NCTC10110, 144 h; M. suipneumoniae NCTC 10110; 6 days, 37° C.; read-out: MIC
M. suipneumoniae LABER = assay: MIC against mycoplasma in vitro; type: cell-based; details: Mesomycoplasma hyopneumoniae, 144 h; M. suipneumoniae LABER; 6 days, 37° C.; read-out: MIC
Staph. aureus W2827 = assay: MIC against human bacteria in vitro; type: cell-based; details: Staphylococcus aureus
[14] = system: Corynebacterium pyogenes CY1; assay: MIC against veterinary bacteria in vitro; details: CY1, 18 h
Description: as §1

M. pneumoniae ATCC 15492 = assay: MIC against mycoplasma in vitro; type: cell-based; details: Mycoplasmoides pneumoniae, ATCC15492, 144 h; M. pneumoniae ATCC 15492; 6 days, 37° C.; read-out: MIC

Compound | MIC (Sarcina lutea 8340) [µg/mL] | MIC (Past. multocida PA2) [µg/mL] | MIC (M. suipneumoniae JF 435) [µg/mL] | MIC [2] [µg/mL] | MIC (M. suipneumoniae HK(2)) [µg/mL] | MIC [3] [µg/mL] | MIC [4] [µg/mL] | MIC (Strep. agalactiae SPA1) [µg/mL] | MIC (Past. haemolytica PA5) [µg/mL] | MIC [5] [µg/mL] | MIC [7] [µg/mL] | MIC (M. suipneumoniae UCD 1) [µg/mL] | MIC (M. hyorhinis ATCC 23234) [µg/mL] | MIC (S. dublin S7) [µg/mL] | MIC (Staph. aureus Oxford [8]) [µg/mL] | MIC (M. hyorhinis ATCC 25021) [µg/mL] | MIC [9] [µg/mL] | MIC (Bord. bronchiseptica B08) [µg/mL] | MIC [10] [µg/mL] | MIC [11] [µg/mL] | further results
C/C(=C/c1ncc(-c2ccccc2)o1)C[C@@H]1OC[C@H](C[C@@H]2O[C@H]2[C@@H](C)[C@H](C)O)[C@@H](O)[C@H]1O [Example 2, 2-{3-[5-(2,3-epoxy-5-hydroxy-4-methylhexyl)-3,4-dihydroxytetrahydropyran-2-yl]-2-methylprop-1(Z)-enyl}-5-phenyloxazole] | > 50 | 20 (≈ 45.1 µM) | > 10 | 10 (≈ 22.5 µM) | 10 (≈ 22.5 µM) | > 50 | > 50 | 20 (≈ 45.1 µM) | > 80 | > 80 | > 80 | 10 (≈ 22.5 µM) | 10 (≈ 22.5 µM) | > 80 | 20 (≈ 45.1 µM) | 5 (≈ 11.3 µM) | 20 (≈ 45.1 µM) | > 80 | 5 (≈ 11.3 µM) | 10 (≈ 22.5 µM) | MIC ([1]; Haemophilus influenzae Wy21, 5% chocolated horse blood agar, 18 hours, read-out: MIC): 12.5 µg/mL (≈ 28.2 µM); MIC (Staph. aureus Russell; 18 h): > 50 µg/mL; MIC (E. coli ESS; E. coli ESS, 5% chocolated horse blood agar, 18 hours, read-out: MIC): 25 µg/mL (≈ 56.4 µM); MIC (Staph. aureus Oxford [6]): 25 µg/mL (≈ 56.4 µM); MIC (Strep. pneumoniae CN33; CN33, 18 h): > 50 µg/mL; MIC (Bacillus subtilis 6633; Bacillus subtilis 6633, 5% chocolated horse blood agar, 18 hours, read-out: MIC): 25 µg/mL (≈ 56.4 µM); MIC [12]: 5 µg/mL (≈ 11.3 µM); MIC (Strep. agalactiae 2788-B; 2788B, 18 h): > 50 µg/mL; MIC (M. dispar NCTC 10125): 2.5 µg/mL (≈ 5.64 µM); MIC (Past. multocida PA1): > 80 µg/mL; MIC [13]: 10 µg/mL (≈ 22.5 µM); MIC (M. suipneumoniae LABER): 10 µg/mL (≈ 22.5 µM); MIC (Staph. aureus W2827; W2827, 18 h): > 50 µg/mL; MIC [14]: > 80 µg/mL
COC(=O)CCCCCCCc1cnc(/C=C(\C)C[C@@H]2OC[C@H](C[C@@H]3O[C@H]3[C@@H](C)[C@H](C)O)[C@@H](O)[C@H]2O)o1 [Example 7, 5-(7-Methoxycarbonylheptyl)-2-(1-normon-2-yl)oxazole A] | > 100 | 20 (≈ 38.2 µM) | > 10 | > 10 | > 10 | > 100 | 2.5 (≈ 4.77 µM) | 5 (≈ 9.55 µM) | > 80 | 80 (≈ 153 µM) | > 80 | > 10 | 10 (≈ 19.1 µM) | > 80 | 5 (≈ 9.55 µM) | 10 (≈ 19.1 µM) | 5 (≈ 9.55 µM) | 40 (≈ 76.4 µM) | 10 (≈ 19.1 µM) | 10 (≈ 19.1 µM) | MIC ([1]; Haemophilus influenzae, WY21, 18 h): 1 µg/mL (≈ 1.91 µM); MIC (Staph. aureus Russell; Staph. aureus Russell, 5% chocolated horse blood agar, 18 hours, read-out: MIC): 25 µg/mL (≈ 47.7 µM); MIC (E. coli ESS; 18 h): 0.5 µg/mL (≈ 0.955 µM); MIC (Strep. pneumoniae CN33; Strep. pneumoniae CN33, 5% chocolated horse blood agar, 18 hours, read-out: MIC): 25 µg/mL (≈ 47.7 µM); MIC (M. pneumoniae ATCC 15492): > 10 µg/mL; MIC (Bacillus subtilis 6633; Bacillus subtilis, 6633, 18 h): 2.5 µg/mL (≈ 4.77 µM); MIC [12]: 5 µg/mL (≈ 9.55 µM); MIC (Strep. agalactiae 2788-B; Strep. agalactiae 2788-B, 5% chocolated horse blood agar, 18 hours, read-out: MIC): 25 µg/mL (≈ 47.7 µM); MIC (M. dispar NCTC 10125): 2.5 µg/mL (≈ 4.77 µM); MIC (Past. multocida PA1): 40 µg/mL (≈ 76.4 µM); MIC [13]: 10 µg/mL (≈ 19.1 µM); MIC (M. suipneumoniae LABER): 10 µg/mL (≈ 19.1 µM); MIC (Staph. aureus W2827; Staph. aureus W2827, 5% chocolated horse blood agar, 18 hours, read-out: MIC): 25 µg/mL (≈ 47.7 µM); MIC [14]: > 80 µg/mL

Reference: patent US5041567A, “Antibacterial monic acid derivatives” (Beecham Group plc, priority 1982, dated 1991)
